Assays:
[1] = test system: Human pancreatic cancer cell line HPAF-II; experiment: HPAF-II growth inhibition assay (Example 317); assay type: cell-based; conditions: 120 h, HPAF-II cells, 5 days culture, CellTiter Glo 2.0 (Example 317, Table 11), read-out: Absolute IC50
Experimental: Cells of the human pancreatic cancer cell line HPAF-II (ATCC Number CRL-1997) were maintenance cultured in a 5% CO2 incubator (37° C.) using RPMI 1640 (FujiFilm-Wako Pure Chemical Industries) containing 10% fetal bovine serum (FBS: SIGMA 173012) and penicillin/streptomycin (FujiFilm-Wako Pure Chemical Industries) (hereunder referred to simply as “culture medium”). After adding 25 μL of HPAF-II cell suspension prepared to 3.2×10^4 cells/mL using culture medium into each well of a 384-well plate (Greiner 781091), the cells were cultured overnight in a 5% CO2 incubator (37° C.). On the following day, 25 μL of the test substance diluted with culture medium was added to each well, and culturing was continued for 5 days in a 5% CO2 incubator (37° C.). Next, 25 μL of CellTiter Glo™ 2.0 (Promega) was added to each well, and the plate contents were mixed for 5 minutes using a plate mixer. The plate was stationed for 10 minutes at room temperature while shielded from light, and then the luminous intensity was measured with an ENVISION′ (Perkin-Elmer). The luminescence value of the wells with addition of test substance was determined as a relative value, with 100% as the luminescence value of the wells with cells but without addition of the test substance and 0% as the luminescence value of the wells without cells. […]

[2] = test system: AsPC-1/Cas9 cell line; experiment: AsPC-1/Cas9 growth inhibition assay; assay type: cell-based, human; conditions: Homo sapiens, ASPC1, 120 h, AsPC-1/Cas9 cells, 5 days culture, CellTiter Glo 2.0; read-out: Absolute IC50—Day 5 (nM) AsPC-1 Cas9
Experimental: The human pancreatic cancer cell line AsPC-1 (ATCC Number CRL1682) was infected with Edit-R Lentiviral hCMV-Blast-Cas9 Nuclease Particle (Dharmacon, VCAS10124) in the presence of 8 μg/ml of Hexadimethrine bromide (Sigma, H9268), and after 24 hours it was exposed to 10 μg/ml of Blastcidin S (Thermo, A11139) to remove the uninfected cells, thereby establishing an AsPC-1/Cas9 cell line. The cells were maintenance cultured in a 5% CO2 incubator (37° C.) using RPMI-1640 (FujiFilm-Wako Pure Chemical Industries) containing 10% fetal bovine serum (FBS: SIGMA 173012) and penicillin/streptomycin (FujiFilm-Wako Pure Chemical Industries) (hereunder referred to simply as “culture medium”). After adding 45 μL of AsPC-1/Cas9 cell suspension prepared to 2.0×10^4 cells/mL using culture medium into each well of a 384-well plate (Greiner 781091), the cells were cultured overnight in a 5% CO2 incubator (37° C.). On the following day, 5 μL of the test substance diluted with culture medium was added to each well, and culturing was continued for 5 days in a 5% CO2 incubator (37° C.). Next, 25 μL of CellTiter Glo™ 2.0 (Promega) was added to each well, and the plate contents were mixed for 5 minutes using a plate mixer. The plate was stationed for 10 minutes at room temperature while shielded from light, and then the luminous intensity was measured with an ENVISION™ (Perkin-Elmer). The luminescence value of the wells with addition of test substance was determined as a relative value, with 100% as the luminescence value of the wells with cells but without addition of the test substance, and 0% as the luminescence value of the wells without cells. A plot of test substance concentration against luminescence value % approximated a 4-parameter logistic curve, and the test substance concentration necessary for 50% inhibition of cell growth (Absolute IC50) was calculated, and is shown in Table 4.

[3] = biological target: HiBiT tagged BRD4-BD1 protein in HEK293/LgBiT/hPGK/HiBiT-BRD4-BD1 cells (Homo sapiens, UniProt O60885); experiment: BET BD1 domain degradation assay; assay type: cell-based; set-up: HiBit-linker-BRD4 BD1(1-209); host or cells: HEK293 (ATCC CRL-1573) stably transduced with LgBiT and HiBiT-BRD4-BD1; conditions: concentration for 50% reduction in HiBiT-BRD4-BD1 protein level, 3 hours, read-out: Absolute DC50—3 h (nM) HEK293_HiBiT-BRD4-BD1
Excerpt: HEK293/LgBiT/hPGK/HiBiT-BRD4-BD1 cells were established by introducing LgBiT and HiBiT-BRD4-BD1 into the human fetus renal cell line HEK293 (ATCC Number CRL-1573). LgBiT was introduced using lentivirus vector LV[Exp]-Bsd-EFS>{LgBiT}, and HiBiT-BRD4-BD1 was introduced with lentivirus vector LV[Exp]-Puro-hPGK>{HiBit-linker-BRD4 BD1(1-209)}. The vector plasmids LV[Exp]-Bsd-EFS>{LgBiT} and LV[Exp]-Puro-hPGK>{HiBit-linker-BRD4_BD1(1-209)} were constructed by VectorBuilder Co. The lentivirus was produced using a Mission Lentivirus Packaging Mix (Sigma) according to the manufacturer's protocol. Viral infection and drug selection of infected cells were carried out by the following published method (Akagi T. et. al, PNAS 2003; 100:13567-72). The cells were maintenance cultured in a 5% CO2 incubator (37° C.), using culture medium. A 45 μL portion of cell suspension of HEK293/LgBiT/hPGK/HiBiT-BRD4-BD1 cells prepared to 6.7×10^4 cells/mL using culture medium was added to each well of a collagen I-coated 384-well plate (Falcon 356667), and the cells were cultured overnight in a 5% CO2 incubator (37° C.). On the following day, 5 μL of test substance diluted with RPMI-1640 (FujiFilm-Wako Pure Chemical Industries) containing 10% fetal bovine serum (FBS: SIGMA 173012) and penicillin/streptomycin (FujiFilm-Wako Pure Chemical Industries) was added to each well, and culturing was continued for 3 hours in a 5% CO2 incubator (37° C.). The luminous intensity was measured using a Nono-Glo HiBiT Lytic Detection System (Promega), and the intracellular HiBiT tagged BRD4-BD1 protein level was calculated. After culturing, 25 μL of measuring reagent was added to each well and the plate contents were mixed for 5 minutes using a plate mixer. The plate was stationed for 10 minutes at room temperature while shielded from light, and then the luminous intensity was measured with an ENVISION′ (Perkin-Elmer). The luminescence value of the wells with addition of test substance was determined as a relative value, with 100% as the luminescence value of the wells with cells but without addition of the test substance, and 0% as the luminescence value of the wells without cells. A plot of test substance concentration against luminescence value % approximated a 4-parameter logistic curve, and the test substance concentration necessary for 50% reduction in protein level (Absolute DC50) was calculated and is shown in Table 4.

IC50 [1]: 2.9 nM
IC50 [2]: 2.4 nM
DC50 [3]: > 100 nM
SMILES: COc1ccc(C#CCNC2(C)CCN(C3CCN(c4nc([C@@](CO)(OC5CC5)c5ccccc5)c5cc(-c6cn(C)c(=O)c7[nH]ccc67)ccc5n4)CC3)CC2)cc1N1CCC(=O)N(CNC(=O)[C@H](CC(N)=O)NC(C)=O)C1=O [Example 135, (S)-2-Acetamide-N1-((3-(5-(3-((1′-(4-((S)-1-cyclopropoxy-2-hydroxy-1-phenylethyl)-6-(6-methyl-7-oxo-6,7-dihydro-1H-pyrrolo[2,3-c]pyridin-4-yl)quinazolin-2-yl)-4-methyl-[1,4′-bipiperidin]-4-yl)amino)prop-1-yn-1-yl)-2-methoxyphenyl)-2,6-dioxotetrahydropyrimidine-1(2H)-yl)methyl)succinamide]

Reference: patent US20240148895A1, “ANTIBODY-DRUG CONJUGATE” (Eisai R&D Management Co., Ltd., priority 2022, published 2024)
